Source: patent US7595158B2, “Bcl2L12 polypeptide activators and inhibitors” (Dana-Farber Cancer Institute, Inc., priority 2003, dated 2009)

What was measured:
Format in all cases: cell-based, human
Bcl2L12 polypeptide = assay: Endogenous Bcl2L12 polypeptide expression in U87MG cells (Western blot, immunofluorescence); settings: 48 hours post transfection, anti-L12-1 Western blot
Method: Down-regulation of Bcl2L12 polypeptide expression via RNA interference was assessed in U87MG cells. Briefly, U87MG cells were co-transfected (1:10 ratio) with 0.5 μg of vector encoding GFP and 5 μg of either pSHAG-Control, pSHAG-Bcl2L12-A, pSHAG-Bcl2L12-B, or pSHAG-Bcl2L12-A+-B. Once transfected, the cells expressing GFP were sorted out by FACS analysis. […] The FACS-sorted cells were assessed for Bcl2L12 polypeptide expression. […] The FACS-sorted cells also were seeded in 24-well plates at a density of 1×10^5 cells, grown in 10% FBS-DMEM, and counted every day for three days.
In another experiment, total cellular lysates of U87MG cells transfected with control siRNA, Bcl2L12-targeting siRNA #4, or Bcl2L12-targeting siRNA #5 were harvested 48 hours post transfection and subjected to western blot analysis using the anti-L12-1 antibody (1 μg/mL).
The following experiments were performed to characterize the anti-Bcl2L12 polypeptide antibodies. U87MG cells stably expressing control or Bcl2L12-targeting shRNA (shL12-1) were subjected to deconvolution immunofluorescence microscopy using the anti-L12-2 antiserum. Cells were counterstained with DAPI. […]
The potential anti-oncogenic impact of Bcl2L12 polypeptide knockdown was assessed in the U87MG human glioma model system. […] Bcl2L12 polypeptide expression was analyzed by western blotting using the anti-L12-1 antibody. […]

LNZ308 cells = assay: STS-induced DNA fragmentation (sub-G1, FACS) in LNZ308 cells; settings: LNZ308, 2.0 μM STS; control siRNA about 30 percent
Method: (§1) LNZ308 and LN443 glioma cell lines transfected with control siRNA, Bcl2L12-targeting siRNA #4, or Bcl2L12-targeting siRNA #5 were treated with 0, 0.2, 0.5, 1.0, or 2.0 μM STS. DNA-fragmentation was assessed by quantifying sub-G1 peaks using FACS analysis. siRNA-mediated knockdown of Bcl2L12 polypeptide sensitized the glioma cell lines to STS-induced apoptosis. […] The maximum percent DNA fragmentation was about 30 percent, 45 percent, and 55 percent in LNZ308 cells transfected with control siRNA, siRNA #4, or siRNA #5, respectively, and treated with 2.0 μM STS (FIG. 10B). […] The maximum percent DNA fragmentation was about 40 percent, 60 percent, and 75 percent in LN443 cells transfected with control siRNA, siRNA #4, or siRNA #5, respectively, and treated with 2.0 μM STS (FIG. 10C).
LNZ308 cells co-transfected with pcDNA3-GFP and either pSHAG-A or pSHAG-B were treated with 0.1 or 0.5 μM of STS for 24 hours, and DNA fragmentation was assessed.

LN443 cells = assay: STS-induced DNA fragmentation (sub-G1, FACS) in LN443 cells; settings: LN443, 2.0 μM STS; control siRNA about 40 percent
Method: as §1

[1] = test system: caspases 2, 3/7, 6, 8, and 9; assay: Caspase activity profile with fluorogenic peptide substrates in LNZ308 cells; settings: LNZ308, STS 24 hours
Method: LNZ308 cells were transfected with control or siRNA oligonucleotide #5, and treated with STS for 24 hours. Subsequently, caspase activity was profiled using caspase-specific fluorogenic peptide substrates assessing the activity status of caspases 2, 3/7, 6, 8, and 9.

pro-caspase-7 = assay: Anti-L12-2 immunoprecipitation from U87MG cells, Western blot for caspase-7; settings: anti-L12-2 immunoprecipitates
Method: To define further the molecular actions of Bcl2L12 polypeptides, the physical interactions with key post-mitochondrial apoptosis signaling molecules were assessed. Anti-L12-2 immunoprecipitates from lysates of LNZ308, U87MG, and 293T cells were subjected to western blot analysis for procaspases 7 and 3 and cytochrome c. Briefly, cells were lysed in IP buffer. Cleared supernatants were incubated with prebleed serum (8 μl) coupled to Protein A-sepharose 4B beads (Sigma) for 1 hour and subsequently with anti-L12-2 antiserum (8 μl) for 1 to 2 hours. For western blot analyses, polypeptides were separated by 4-12% SDS-PAGE, transferred to Hybond PVDF membranes (Amersham), blocked with 5% milk in phosphate-buffered saline with 0.05% Tween 20 (PBS/Tween) for 1 hour, washed with PBS/Tween and incubated with anti-cytochrome c antibodies (0.5 μg/ml; BD Pharmingen), anti-caspase-7 antibodies (0.5 μg/ml, BD Pharmingen), or anti-caspase-3 anitbodies (0.25 μg/ml, BD Transduction Laboratories) in PBS/Tween 20 with 5% milk. The blots were washed with PBS/Tween and developed with goat anti-rabbit IgG (1:10,000) or with goat anti-mouse antibodies (1:10,000) (Pierce) in 5% milk PBS/Tween. […] 1/40 of the lysate used for the immunoprecipitation was loaded to quantify the amount of co-immunoprecipitated caspase-7. […]

Substance	Bcl2L12 polypeptide levels (Bcl2L12 polypeptide)	maximum percent DNA fragmentation (LNZ308 cells) [%]	maximum percent DNA fragmentation (LN443 cells) [%]	caspase activity [1]	co-immunoprecipated pro-caspase-7 (pro-caspase-7)
siRNA #4: Bcl2L12-targeting siRNA oligonucleotide 5′-AAGCUGGUCCGCCUGUCCU-3′; SEQ ID NO:6 (chemistry not given here)	significant reduction	~45	~60	–	–
siRNA #5: Bcl2L12-targeting siRNA oligonucleotide 5′-UGGUGGAGCUGUUCUGUAG-3′; SEQ ID NO:7 (chemistry not given here)	significant reduction	~55	~75	enhanced caspase activity	significant decrease
